The assay addresses T1, human histamine H4 receptor (Homo sapiens, UniProt Q9H3N8).
T1 construct: expressed in transfected cells; host or cells: SK-N-MC cells or COS7 cells, transiently transfected with pH4R; membrane preparation
The experiment in a line: Binding Assay on Recombinant Human Histamine H4 Receptor. The conditions noted are these: competition binding with 3H-histamine, membranes of SK-N-MC or COS7 cells transfected with human H4R; average of results obtained. As to the method: Biological Methods: Binding Assay on Recombinant Human Histamine H4 Receptor.
SK-N-MC cells or COS7 cells were transiently transfected with pH4R and grown in 150 cm^2 tissue culture dishes. Cells were washed with saline solution, scraped with a cell scraper and collected by centrifugation (1000 rpm, 5 min). Cell membranes were prepared by homogenization of the cell pellet in 20 mM Tris-HCl with a polytron tissue homogenizer for 10 sec at high speed. Homogenate was centrifuged at 1000 rpm for 5 min at 4° C. The supernatant was then collected and centrifuged at 20,000×g for 25 min at 4° C. The final pellet was resuspended in 50 mM Tris-HCl. Cell membranes were incubated with ^3H-histamine (5-70 nM) in the presence or absence of excess histamine (10,000 nM). Incubation occurred at room temperature for 45 min. Membranes were harvested by rapid filtration over Whatman GF/C filters and washed 4 times with ice-cold 50 mM Tris HCl. Filters were then dried, mixed with scintillant and counted for radioactivity. SK-N-MC or COS7 cells expressing human histamine H4 receptor were used to measure the affinity of binding of other compounds and their ability to displace ^3H-ligand binding by incubating the above-described reaction in the presence of various concentrations of inhibitor or compound to be tested. For competition binding studies using ^3H-histamine, K values were calculated, based on an experimentally determined KD value of 5 nM and a ligand concentration of 5 nM, according to Y.-C.

Structures can show the parent of a compound that is named as a salt. Where only a bound is given, the exact number is not on record here.

T1 sequence (Q9H3N8 whole entry): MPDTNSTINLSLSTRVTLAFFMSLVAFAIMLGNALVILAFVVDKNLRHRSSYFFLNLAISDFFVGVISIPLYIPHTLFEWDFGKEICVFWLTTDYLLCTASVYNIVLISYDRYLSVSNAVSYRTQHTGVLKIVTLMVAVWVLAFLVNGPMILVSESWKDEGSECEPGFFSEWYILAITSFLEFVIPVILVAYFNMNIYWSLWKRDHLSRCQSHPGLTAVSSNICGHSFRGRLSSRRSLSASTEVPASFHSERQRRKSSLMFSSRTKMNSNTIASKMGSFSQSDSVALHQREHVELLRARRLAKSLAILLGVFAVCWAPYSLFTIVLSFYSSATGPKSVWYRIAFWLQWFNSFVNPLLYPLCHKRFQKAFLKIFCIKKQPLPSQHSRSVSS

A word on the Ki: it is a dissociation constant, usually derived from enzyme kinetics or from competition with a known ligand. On to `CN1CCN(c2nc(N)nc3c4c(sc23)CCC(F)(F)C4)CC1` [Example 57, 8,8-Difluoro-4-(4-methyl-piperazin-1-yl)-6,7,8,9-tetrahydro[1]benzothieno[3,2-d]pyrimidin-2-amine trifluoroacetic acid salt], for which the inhibition constant Ki worked out at 23 nM.

Regarding `Nc1nc(N2CC(N)C2)c2sc3c(c2n1)CC(F)(F)CC3` [Example 120, 4-(3-Aminoazetidin-1-yl)-8,8-difluoro-6,7,8,9-tetrahydro[1]benzothieno[3,2-d]pyrimidin-2-amine (free amine)], the Ki came out at 170 nM.

As for `Nc1nc(N2CCN3CCCC3C2)c2sc3c(c2n1)CCCC3` (stereo not drawn) [Example 52, 4-(Hexahydropyrrolo[1,2-a]pyrazin-2(1H)-yl-6,7,8,9-tetrahydro[1]benzothieno[3,2-d]pyrimidin-2-aminetrifluoroacetic acid salt], the Ki is 67 nM.

As for `CCNC1CCN(c2nc(N)nc3c4c(sc23)CCCC4)C1` (stereo in doubt) [Example 40, 4-[(3R)-3-(Ethyl-amino)pyrrolidin-1-yl]-6,7,8,9-tetrahydro[1]benzo-thieno[3,2-d]pyrimidin-2-amine trifluoroacetic acid salt], the Ki was found to be 503 nM.

For the compound `NC[C@H]1CCN(c2nc(N)nc3c4c(sc23)CCCC4)C1` [Example 41, 4-[(3R)-3-(Amino-methyl)pyrrolidin-1-yl]-6,7,8,9-tetrahydro[1]benzo-thieno[3,2-d]pyrimidin-2-amine trifluoroacetic acid salt], the Ki amounted to 1010 nM.

For `Nc1nc(N2CC[C@@H](N)C2)c2sc3c(c2n1)CC(F)(F)CC3` [Example 113, 4-[(3R)-3-Aminopyrrolidin-1-yl]-8,8-difluoro-6,7,8,9-tetrahydro[1]benzothieno[3,2-d]pyrimidin-2-amine hydrochloride], the Ki was 1.1 nM.

Consider `Nc1nc(N2C[C@H]3CNC[C@H]3C2)c2sc3c(c2n1)CCCC3` [Example 33], for which the Ki came to 390 nM.

Take `Nc1nc(N2CCCNCC2)c2sc3c(c2n1)CCCC3` [Example 37, 4-(1,4-Diazepan-1-yl)-6,7,8,9-tetrahydro[1]benzo-thieno[3,2-d]pyrimidin-2-amine hydrochloric acid salt]: the Ki worked out at 15 nM.

As to `Nc1nc(N2CC[C@@H](N)C2)c2oc3c(c2n1)CCCC3` [Example 24, 4-[(3R)-3-Aminopyrrolidin-1-yl-6,7,8,9-tetra-hydro[1]benzofuro[3,2-d]pyrimidin-2-aminetrifluoroacetic acid salt], the Ki worked out at 2 nM.

Regarding `Nc1nc(N2C[C@H]3CCCN[C@H]3C2)c2sc3c(c2n1)CCCCC3` [Example 48, 4-[(4aR,7aR)-Octahydro-6H-pyrrolo[3,4-b]pyridin-6-yl]-7,8,9,10-tetrahydro-6H-cyclohepta[4,5-d]pyrimidin-2-amine trifluoroacetic acid salt], the Ki stood at 3 nM.

As for `CN1CCN(c2ncnc3c4c(sc23)CCCC4)CC1` [Example 10, 4-(4-Methyl-piperazin-1-yl)-6,7,8,9-tetrahydro-benzo[4,5]thieno[3,2-d]pyrimidine], the Ki stood at 132 nM.

With `Nc1nc(N2CCn3cnnc3C2)c2sc3c(c2n1)CCCC3` [Example 54, 4-(5,6-Dihydro[1,2,4-a]pyrazin-7(8H)-yl)-6,7,8,9-tetrahydro[1]benzothieno[3,2-d]pyrimidin-2-amine trifluoroacetic acid salt], the inhibition constant (Ki) amounted to 1610 nM.

Take `NCCNc1nc(N)nc2c3c(sc12)CCC(F)(F)C3` [Example 128, N^4-(2-Aminoethyl)-8,8-difluoro-6,7,8,9-tetrahydro[1]benzothieno[3,2-d]pyrimidine-2,4-diamine hydrochloride]: the Ki was 150 nM.

As for `CN(CCN)c1nc(N)nc2c3c(sc12)CCC(F)(F)C3` [Example 115, N^4-(2-Aminoethyl)-8,8-difluoro-N^4-methyl-6,7,8,9-tetrahydro[1]benzothieno[3,2-d]pyrimidine-2,4-diamine trifluoroacetate], the inhibitory constant (Ki) is 21 nM.

As to `NCCNc1ncnc2c3c(oc12)CCCC3` [Example 27, N-(6,7,8,9-Tetra-hydro[1]benzofuro[3,2-d]pyrimidin-4-yl]ethane-1,2-diamine], the Ki is over 10000 nM.

In the case of `CN[C@H]1CCN(c2nc(N)nc3c4c(sc23)CCC(C)C4)C1` (stereo partly drawn) [Example 44, 8-Methyl-4-[(3R)-3-(methyl-amino)pyrrolidin-1-yl]-6,7,8,9-tetrahydro[1]benzo-thieno[3,2-d]pyrimidin-2-amine trifluoroacetic acid salt], the Ki is 11 nM.

Consider `CC(C)(C)c1cc2nc(N)nc(N3CCC(N)C3)c2s1` (stereo in doubt) [Example 18, 4-[(3R)-3-Aminopyrrolidin-1-yl]-6-tert-butylthieno[3,2-d]pyrimidin-2-amine trifluoroacetic acid salt], for which the Ki was 221 nM.

On to `CN1CCN(c2nc(N)nc3c4c(oc23)CCC(F)(F)C4)CC1` [Example 123, 8,8-Difluoro-4-(4-methylpiperazin-1-yl)-6,7,8,9-tetrahydro[1]benzofuro[3,2-d]pyrimidin-2-amine trifluoroacetate], for which the Ki amounted to 15 nM.

Turning to `CN[C@H]1CCN(c2nc(N)nc3c4c(sc23)CCCC4)C1` (single isomer, unassigned) [Example 31], the Ki is 5 nM.

On to `CC1CCc2sc3c(N4C[C@H]5CCCN[C@H]5C4)nc(N)nc3c2C1` (stereo partly drawn) [Example 45, 8-Methyl-4-[(4aR,7aR)-octa-hydro-6H-pyrrolo-[3,4-b]pyridin-6-yl]-6,7,8,9-tetra-hydro[1]benzothieno[3,2-d]pyrimidin-2-amine trifluoroacetic acid salt], for which the Ki came to 4 nM.

With `CN[C@H]1CCN(c2nc(N)nc3cc(C(C)(C)C)sc23)C1` [Example 16, trifluoroacetic acid salt], the Ki was determined as 71 nM.

For `CNC1CCN(c2nc(N)nc3c4c(oc23)CCCC4)C1` (stereo in doubt) [Example 21, 4-[(3R)-3-(Methyl-amino)pyrrolidin-1-yl]-6,7,8,9-tetrahydro[1]benzo-furo[3,2-d]pyrimidin-2-amine trifluoro acid salt], the inhibition constant Ki worked out at 3 nM.

For the compound `Nc1nc(N2CCCNCC2)c2oc3c(c2n1)CC(F)(F)CC3` [Example 130, 4-(1,4-Diazepan-1-yl)-8,8-difluoro-6,7,8,9-tetrahydro[1]benzofuro[3,2-d]pyrimidin-2-amine (free amine)], the inhibition constant (Ki) worked out at 8.2 nM.

For `CC(C)(C)c1cc2nc(N)nc(N3CC4CCCNC4C3)c2s1` (stereo not drawn) [Example 19, 6-tert-Butyl-4-(octahydro-6H-pyrrolo[3,4-b]pyridin-6-yl)thieno[3,2-d]pyrimidin-2-amine trifluoroacetic acid salt], the Ki was 244 nM.

Take `CN(CCN)c1nc(N)nc2c3c(sc12)CCC(C)(C)C3` [Example 133, N^4-(2-Aminoethyl)-N^4,8,8-trimethyl-6,7,8,9-tetrahydro[1]benzothieno[3,2-d]pyrimidine-2,4-diamine trifluoroacetate]: the inhibition constant (Ki) amounted to 54 nM.

Regarding `Nc1nc(N2C[C@H]3CCCN[C@H]3C2)c2sc3c(c2n1)CCCC3` [Example 32, 4-[(4aR,7aR)-Octahydro-6H-pyrrolo[3,4-b]pyridin-6-yl]-6,7,8,9-tetrahydro[1]benzo-thieno[3,2-,d]pyrimidin-2-amine], the Ki amounted to 2 nM.

Turning to `CC1(C)CCc2sc3c(N4CCCNCC4)nc(N)nc3c2C1` [Example 132, 4-(1,4-Diazepan-1-yl)-8,8-dimethyl-6,7,8,9-tetrahydro[1]benzothieno[3,2-d]pyrimidin-2-amine trifluoroacetate], the inhibition constant (Ki) worked out at 35 nM.

On to `Nc1nc(N2CCNCC2)c2sc3c(c2n1)CC(F)(F)CC3` [Example 58, 8,8-Difluoro-4-piperazin-1-yl-6,7,8,9-tetrahydro[1]ben-zothieno[3,2-d]pyrimidin-2-amine trifluoroacetic acid salt], for which the Ki is 14 nM.

For the compound `Nc1nc(N2C[C@H]3C[C@@H]2CN3)c2sc3c(c2n1)CCCC3` [Example 36, 4-[(1R,4R)-2,5-Diazabicy-clo[2.2.1]hept-2-yl]-6,7,8,9-tetrahydro[1]benzothi-eno[3,2-d]pyrimidin-2-amine], the Ki is over 10000 nM.

In the case of `Nc1nc(N2C[C@H]3CNC[C@H]3C2)c2sc3c(c2n1)CC(F)(F)CC3` [Example 129, 8,8-Difluoro-4-[(3aR,6aS)-hexahydropyrrolo[3,4-c]pyrrol-2(1H)-yl]-6,7,8,9-tetrahydro[1]benzothieno[3,2-d]pyrimidin-2-amine (free amine)], the Ki came out at 680 nM.

Consider `Nc1nc(N2CCCNCC2)c2sc3c(c2n1)CC(F)(F)CC3` [Example 114, 4-(1,4-Diazepan-1-yl)-8,8-difluoro-6,7,8,9-tetrahydro[1]benzothieno[3,2-d]pyrimidin-2-amine trifluoroacetate], for which the Ki turned out to be 2.1 nM.

For `Nc1nc(N2CCNCC2)c2sc3c(c2n1)CCCC3` [Example 3, 4-piperazin-1-yl-6,7,8,9-tetrahydro-benzo[4,5]thieno[3,2-d]pyrimidin-2-ylamine], the inhibition constant (Ki) stood at 23 nM.

On to `Nc1nc(N2CCC[C@H](N)C2)c2sc3c(c2n1)CCCC3` [Example 34, 4-[(3S)-3-Aminopiperidin-1-yl]-6,7,8,9-tetrahydro[1]ben-zothieno[3,2-d]pyrimidin-2-amine], for which the Ki is 123 nM.

(Values after patent US8440654B2, “Thieno- and furo-pyrimidine modulators of the histamine H4 receptor” (Janssen Pharmaceutica NV, priority 2007, dated 2013).)
